Structures can show the parent of a compound that is named as a salt.

What all share (format): in vivo
Assay [1] relates to Aedes aegypti mosquitoes, insecticide-susceptible Orlando strain. The following applies: for 1 h Repellency EC50, μg/cm^2: (OR); for 1 h % Repellency, 100 μg/cm^2: screened at 100 μg/cm^2, strain not given; for vapor repellency / mortality, statement in words (Example 8): structure-activity analysis of Table 2. As to the method:
The tubes as shown were held horizontally on the bench.
For assessing behavioral repellency (FIG. 1), Aedes aegypti mosquitoes were used from the insecticide-susceptible Orlando strain and the pyrethroid-resistant Puerto Rico strain. Sixteen female mosquitoes were transferred to a glass tube (12.5 cm long, 2.5 cm outer diameter) with the ends covered with netting. Each compound was dissolved in 1 mL of acetone and serial dilutions ranging from 30-0.01 μg/ml were made. Circular filter papers (5 cm^2) were saturated with 50 μL of each concentration and allowed 10 min for solvent evaporation. The filter papers were then placed in clear conical polypropylene caps and fixed to the end of the glass tubes. The netting prevented mosquito contact with the filter paper. The tubes were then aligned with a mark denoting the midline and the proportion of mosquitoes on the chemically treated side was scored for up to 60 min. At the end of the test, the tube was placed in a cage and the ability of the mosquitoes to fly out of the tube was assessed for 30 min. […] This post-test evaluated whether any non-responding mosquitoes (not repelled) resulted from intoxication or disorientation from the test chemical. For assessment of lethality, insects were held for 24 hr under constant exposure in glass tubes having treated filter papers.
Compounds were first screened at 100 μg/cm^2 for repellency and 24 h mortality.

For assay [2], the system named is Aedes aegypti strain Orlando (sensitive). In words: Topical toxicity (24 hour mortality), Ae. aegypti Orlando. The following applies: topical application, 24 h mortality, female adults, susceptible Orlando strain. How it is done:
(§1) The Aedes aegypti strains Orlando (sensitive) as well as the Puerto Rico (PR, resistant to permethrin) were used. The Anopheles gambiae (G3 sensitive strain, as well as Akron kdr (Akdr) strain, resistant to pyrethroids were also assessed. The larvae were provided by the USDA, Gainesville Fl, and raised in a pan with tap water maintained at 28° C. Larvae were fed a ground liver and yeast mixture, and pupae were placed in emergence cages. Adults were held at 28° C. and provided with cotton balls soaked in 10% sugar water for rearing and for all bioassays.
(§2) Female adults from 3 to 6 days were used for the experiments. The drug was dissolved in ethanol and then applied with a micro-applicator on the thorax, between the legs: 200 nL of drug per female mosquito, with different concentrations of the drug; 10 mosquitos were treated together per concentration per replicate, and put together in a small container with free access to sweet water. Mortality, i.e. no visible movement, was assessed 24 hours after treatment. Every compound was assessed on at least 3 different cohorts of mosquitoes, and the LD50 values and slopes were determined with Probit analysis, corrected with Abbott's formula.

Assay [3] deals with Anopheles gambiae Akron kdr (Akdr) strain, resistant to pyrethroids. Nature of the assay: Topical toxicity (24 hour mortality), An. gambiae Akdr. Particulars: topical application, 24 h mortality, female adults, pyrethroid-resistant Akdr strain. How it is done:
as §1, §2

Assay [4] concerns Anopheles gambiae G3 sensitive strain. In words: Topical toxicity (24 hour mortality), An. gambiae G3. Particulars: topical application, 24 h mortality, female adults, susceptible strain G3. As to the method: as §1, §2

For `C=CC(=O)Nc1ccccc1C(F)(F)F` [GMR021], in assay [1], the “1 h Repellency EC50, μg/cm^2” value was 32 μg/cm^2 and the “1 h % Repellency, 100 μg/cm^2” value is on record as 92%. With `O=C(Nc1cc(Cl)nc(Cl)c1)C(Cl)(Cl)Cl` [GMR059], the “Ae. aegypti OR LD50” value in assay [2] stood at 866 ng/mg.

Turning to `O=C(Nc1ccccn1)C(F)(F)C(F)(F)C(F)(F)F` [GMR060], the “Ae. aegypti OR LD50” value in assay [2] was determined as 1758 ng/mg. Turning to `CCCCCC(=O)Nc1c(F)c(F)nc(F)c1F` [GMR065], in assay [3], the “An. gambiae AKDR LD50” value was 1225 ng/mg. Further, in assay [2], the “Ae. aegypti OR LD50” value is recorded as 1225 ng/mg. On to `O=C(Nc1ccnc(Cl)c1)C(F)(F)C(F)(F)C(F)(F)C(F)(F)C(F)(F)F` [GMR068], for which the “An. gambiae AKDR LD50” value in assay [3] was found to be 3425 ng/mg. The “Ae. aegypti OR LD50” value in assay [2] stood at 3425 ng/mg.

Regarding `O=C(Nc1ccnc(C(F)(F)F)c1)C(F)(F)C(F)(F)C(F)(F)C(F)(F)C(F)(F)F` [GMR070], in assay [3], the “An. gambiae AKDR LD50” value came to 1261 ng/mg. The “Ae. aegypti OR LD50” value in assay [2] is given as 1261 ng/mg. For `COc1cc(NC(=O)C(F)(F)C(F)(F)C(F)(F)C(F)(F)C(F)(F)F)ccn1` [GMR071], the “Ae. aegypti OR LD50” value in assay [2] was above 2000 ng/mg.

Consider `Cc1cc(NC(=O)C(F)(F)C(F)(F)C(F)(F)C(F)(F)C(F)(F)F)cc(C)n1` [GMR073], for which the “Ae. aegypti OR LD50” value in assay [2] is on record as above 3000 ng/mg. Regarding `O=C(Nc1cc(Cl)cc(Cl)n1)C(F)(F)C(F)(F)C(F)(F)F` [GMR078], the “An. gambiae AKDR LD50” value in assay [3] was above 100 ng/mg. For the same compound, in assay [2], the “Ae. aegypti OR LD50” value turned out to be 5668 ng/mg.

As for `O=C(Nc1ccc(Cl)cn1)C(F)(F)C(F)(F)C(F)(F)F` [GMR079], the “An. gambiae AKDR LD50” value in assay [3] was above 100 ng/mg. The “Ae. aegypti OR LD50” value in assay [2] is above 1000 ng/mg. Take `O=C(Nc1ncc(C(F)(F)F)cc1Cl)C(F)(F)C(F)(F)C(F)(F)F` [GMR080]: in assay [3], the “An. gambiae AKDR LD50” value is given as above 100 ng/mg. Besides, the “Ae. aegypti OR LD50” value in assay [2] is above 1000 ng/mg.

`O=C(Nc1c(F)c(F)nc(F)c1F)C(F)(F)F` [GMR081]: the “An. gambiae AKDR LD50” value in assay [3] was above 100 ng/mg. In addition, the “Ae. aegypti OR LD50” value in assay [2] turned out to be 698 ng/mg.

With `CC(C)(C)OC(=O)N(C(=O)C(F)(F)F)c1cc(Cl)nc(Cl)c1` [GMR119], in assay [2], the “Ae. aegypti OR LD50” value came to 343 ng/mg. Regarding `CC(C)CC(=O)Nc1cc(Cl)nc(Cl)c1` [GMR145], in assay [2], the “Ae. aegypti OR LD50” value is 775 ng/mg. As for `CCCC(=O)Nc1cccc(OC(F)(F)F)c1` [GMR162], the “1 h % Repellency, 100 μg/cm^2” value in assay [1] was found to be 50%. In addition, the “An. gambiae AKDR LD50” value in assay [3] is listed as above 1000 ng/mg. Further, in assay [4], the “An. gambiae G3 LD50” value was above 1000 ng/mg. For the compound `CCCC(=O)N(C(=O)CCC)c1cccc(OC(F)(F)F)c1` [GMR163], the “1 h % Repellency, 100 μg/cm^2” value in assay [1] is on record as 50%. The “An. gambiae AKDR LD50” value in assay [3] is above 1000 ng/mg. The “An. gambiae G3 LD50” value in assay [4] is given as above 1000 ng/mg. Regarding `CCCCCC(=O)N(C(=O)CCCCC)c1cccc(OC(F)(F)F)c1` [GMR165], the “1 h % Repellency, 100 μg/cm^2” value in assay [1] was 62%. As for `CCC(=O)Nc1ccccc1OC(F)(F)F` [GMR170], in assay [1], the “1 h Repellency EC50, μg/cm^2” value is 15 μg/cm^2 and the “1 h % Repellency, 100 μg/cm^2” value turned out to be 94%. In the case of `CCCC(=O)Nc1ccccc1OC(F)(F)F` [GMR171], in assay [1], the “1 h Repellency EC50, μg/cm^2” value was determined as 29 μg/cm^2 and the “1 h % Repellency, 100 μg/cm^2” value stood at 100%. Regarding `O=C(NCC(F)(F)F)c1cc(F)c(F)c(F)c1` [GMR173], in assay [1], the “1 h % Repellency, 100 μg/cm^2” value is reported as 44%; the “vapor repellency / mortality, statement in words (Example 8)” value (from here on “vapor repellency / mortality, statement”) was “some repellency and mortality”. In the case of `O=C(Nc1cc(Cl)nc(Cl)c1)C(C(F)(F)F)C(F)(F)F` [GMR174], the “Ae. aegypti OR LD50” value in assay [2] is on record as 500 ng/mg.

As for `O=C(CSC(F)(F)F)Nc1cc(F)c(F)c(F)c1` [GMR177], in assay [1], the “1 h % Repellency, 100 μg/cm^2” value was 30% and the “vapor repellency / mortality, statement” value is “poor activity”. In addition, the “Ae. aegypti OR LD50” value in assay [2] came to 220 ng/mg.

For `CC1(C)[C@H](C=C(Cl)Cl)[C@H]1C(=O)Nc1cc(F)cc(F)c1` [GMR179], in assay [1], the “1 h % Repellency, 100 μg/cm^2” value came to 30%. As to `O=C(Nc1ccccc1C(F)(F)F)C(F)(F)F` [MTFI-1-4C], the “1 h % Repellency, 100 μg/cm^2” value in assay [1] is −6%. With `O=C(CCl)Nc1cc(C(F)(F)F)cc(C(F)(F)F)c1` [MTFI-3-1F], the “1 h % Repellency, 100 μg/cm^2” value in assay [1] stood at 88%. On to `C=CCCCC(=O)Nc1ccccc1C(F)(F)F` [MTFI-3-2E], for which, in assay [1], the “1 h % Repellency, 100 μg/cm^2” value is reported as 76%.

Turning to `O=C(CCC1CCCCC1)Nc1cccc(C(F)(F)F)c1` [MTFI-3-3A], in assay [1], the “1 h % Repellency, 100 μg/cm^2” value was 16%. Regarding `CC(=O)Nc1ccc(C(F)(F)F)cc1` [MTFI-3-4A], the “1 h % Repellency, 100 μg/cm^2” value in assay [1] is reported as 8%. Take `O=C(CCC1CCCCC1)Nc1ccc(C(F)(F)F)cc1` [MTFI-3-4B]: the “1 h % Repellency, 100 μg/cm^2” value in assay [1] was 8%. As to `O=C(CCC1CCCCC1)Nc1c(Cl)cc(C(F)(F)F)cc1Cl` [MTFI-3-5A], the “1 h % Repellency, 100 μg/cm^2” value in assay [1] turned out to be 0%. Still for that read-out and setting: with `O=C(Nc1cc(C(F)(F)F)cc(C(F)(F)F)c1)C(F)(F)C(F)(F)C(F)(F)F` [MTFI-4-2D] the figure was 12%. As to `O=C(NCC(F)(F)F)Nc1c(Cl)cc(C(F)(F)F)cc1Cl` [MTFI-4-FPL-A], in assay [1], the “1 h % Repellency, 100 μg/cm^2” value came to 0% and the “vapor repellency / mortality, statement” value is on record as “reduced repellency”. Regarding `O=C(Nc1ccc(C(F)(F)F)cc1)c1cc(Cl)cc(Cl)c1` [MTFI-4-NA-1C], in assay [1], the “1 h % Repellency, 100 μg/cm^2” value is 8% and the “vapor repellency / mortality, statement” value is “poor results”. Regarding `O=C(CCl)Nc1cccc(F)c1` [MTFI-5-1A], the “1 h % Repellency, 100 μg/cm^2” value in assay [1] is reported as 6%. On to `COC(=O)c1ccccc1N(C)C(F)(C(F)(F)F)C(F)(F)F` [MTFI-5-11A], for which the “vapor repellency / mortality, statement” value in assay [1] is given as “moderate repellency in some instances”.

For `COC(=O)c1cc(F)c(F)cc1N` [MTFI-5-12A], in assay [1], the “1 h Repellency EC50, μg/cm^2” value was 23 μg/cm^2; the “1 h % Repellency, 100 μg/cm^2” value amounted to 92%; the “vapor repellency / mortality, statement” value is recorded as “moderate repellency in some instances”.

Regarding `COC(=O)c1cccc(C(F)(F)F)c1N` [MTFI-5-12B], the “vapor repellency / mortality, statement” value in assay [1] was “moderate repellency in some instances”.

Regarding `COC(=O)c1cc(C)c(C(F)(F)F)cc1N` [MTFI-5-12C], in assay [1], the “1 h % Repellency, 100 μg/cm^2” value came to 30% and the “vapor repellency / mortality, statement” value is reported as “moderate repellency in some instances”. As for `COC(=O)c1cc(C(F)(F)F)ccc1N` [MTFI-5-12D], in assay [1], the “1 h % Repellency, 100 μg/cm^2” value amounted to 84% and the “vapor repellency / mortality, statement” value is on record as “moderate repellency in some instances”. Consider `COC(=O)c1ccccc1C(F)(F)F` [MTFI-5-13A], for which the “1 h % Repellency, 100 μg/cm^2” value in assay [1] is listed as 6%. As for `CCOC(=O)c1ccccc1C(F)(F)F` [MTFI-5-13B], in assay [1], the “1 h % Repellency, 100 μg/cm^2” value was found to be 12%.

On to `COC(=O)c1ccccc1O` [MTFI-5-14A], for which, in assay [1], the “1 h % Repellency, 100 μg/cm^2” value is given as 70%; the “vapor repellency / mortality, statement” value is “moderate repellency and toxicity”. Consider `CCOC(=O)c1ccccc1O` [MTFI-5-14B], for which, in assay [1], the “1 h % Repellency, 100 μg/cm^2” value is recorded as 30%; the “vapor repellency / mortality, statement” value is “moderate repellency and toxicity”. As for `CCCCOC(=O)c1ccccc1O` [MTFI-5-14C], the “knockdown in 1 hr repellency test (XXkd = number of insects incapacitated out of 16 females)” value in assay [1] (in vivo) is given as 8. Take `O=C(CCl)Nc1cccc(O)c1` [MTFI-5-15A]: the “1 h % Repellency, 100 μg/cm^2” value in assay [1] was 36%.

In the case of `COC(=O)c1cccc(C(F)(F)F)c1N` [MTFI-5-512B], in assay [1], the “1 h % Repellency, 100 μg/cm^2” value amounted to 42%. Consider `CC1(C)C(C=C(Cl)Cl)C1C(=O)O` (stereo not drawn) [TFA, 1R-transfluthrin acid, reference compound], for which the “repellency of TFA alone” value in assay [1] (alone) is “inactive alone”.

The values are drawn from patent US20230337677A1, “ARYL AND PYRIDYL AMIDE PESTICIDES AND COMPOSITIONS THEREOF” (University of Florida Research Foundation, Incorporated, priority 2019, published 2023).
